Assay results: PubChem BioAssay AID330 (DTP/NCI, 2004)
Several values for one entry are separate records, joined by “and”; a condition that tells them apart may be missing. Equal values may be shown once. Inconclusive results and toxic doses are left out.

System: P388 leukemia ip, CD2F1 mice, survival T/C
Experiment: NCI In Vivo Anticancer Drug Screen. Data for tumor model P388 Leukemia (intraperitoneal) in CD2F1 (CDF1) mice
Conditions: endpoint: median survival time, higher = longer survival
Method in brief: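 Mice carrying the transplanted tumor received test compound or vehicle. Survival was recorded in each group, and the value is the treated-group measurement divided by that of the vehicle-treated control group.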

[1] = dose: 200.0 mg/kg/injection, schedule: Q01DX009 (ip), vehicle: saline
[2] = dose: 50.0 mg/kg/injection, schedule: Q01DX005 (ip), vehicle: Klucel (hydroxypropylcellulose) (HPC)
[3] = dose: 100.0 mg/kg/injection, schedule: Q01DX005 (ip), vehicle: Klucel (hydroxypropylcellulose) (HPC)
[4] = dose: 200.0 mg/kg/injection, schedule: Q01DX005 (ip), vehicle: Klucel (hydroxypropylcellulose) (HPC)
[5] = dose: 50.0 mg/kg/injection, schedule: Q01DX009 (ip), vehicle: saline with Tween-80
[6] = dose: 100.0 mg/kg/injection, schedule: Q01DX009 (ip), vehicle: saline with Tween-80
[7] = dose: 200.0 mg/kg/injection, schedule: Q01DX009 (ip), vehicle: saline with Tween-80
[8] = dose: 50.0 mg/kg/injection, schedule: Q01DX009 (ip), vehicle: Klucel (hydroxypropylcellulose) (HPC)
[9] = dose: 100.0 mg/kg/injection, schedule: Q01DX009 (ip), vehicle: Klucel (hydroxypropylcellulose) (HPC)
[10] = dose: 200.0 mg/kg/injection, schedule: Q01DX009 (ip), vehicle: Klucel (hydroxypropylcellulose) (HPC)

## CC(C)(/C=C/c1ccccc1)N=Cc1ccccc1
dose: 60.0 mg/kg/injection, schedule: Q01DX005 (ip), vehicle: saline with Tween-80
  T/C: 100 % of control
dose: 120.0 mg/kg/injection, schedule: Q01DX005 (ip), vehicle: saline with Tween-80
  T/C: 104 % of control
dose: 240.0 mg/kg/injection, schedule: Q01DX005 (ip), vehicle: saline with Tween-80
  T/C: 98 % of control

## OCCO
dose: 100.0 mg/kg/injection, schedule: Q01DX009 (ip), vehicle: saline
  T/C: 86 % of control and 90 % of control
[1]
  T/C: 100 % of control and 86 % of control
dose: 400.0 mg/kg/injection, schedule: Q01DX009 (ip), vehicle: saline
  T/C: 104 % of control and 100 % of control
dose: 0.5 % in 0.5 ml injection vol, schedule: Q01DX009 (ip), vehicle: water
  T/C: 98 % of control
dose: 1.0 % in 0.5 ml injection vol, schedule: Q01DX009 (ip), vehicle: water
  T/C: 99 % of control and 107 % of control
dose: 2.0 % in 0.5 ml injection vol, schedule: Q01DX009 (ip), vehicle: water
  T/C: 100 % of control and 102 % of control
dose: 2.5 % in 0.5 ml injection vol, schedule: Q01DX009 (ip), vehicle: water
  T/C: 106 % of control
dose: 4.0 % in 0.5 ml injection vol, schedule: Q01DX009 (ip), vehicle: water
  T/C: 94 % of control
dose: 5.0 % in 0.5 ml injection vol, schedule: Q01DX009 (ip), vehicle: water
  T/C: 105 % of control
dose: 10.0 % in 0.5 ml injection vol, schedule: Q01DX009 (ip), vehicle: water
  T/C: 103 % of control
dose: 20.0 % in 0.5 ml injection vol, schedule: Q01DX009 (ip), vehicle: water
  T/C: 108 % of control
dose: 40.0 % in 0.5 ml injection vol, schedule: Q01DX009 (ip), vehicle: water
  T/C: 100 % of control
dose: 50.0 % in 0.5 ml injection vol, schedule: Q01DX009 (ip), vehicle: water
  T/C: 107 % of control
dose: 80.0 % in 0.5 ml injection vol, schedule: Q01DX009 (ip), vehicle: water
  T/C: 100 % of control

## CCOC(=O)C1=C(C#N)C(C(=O)OCC)c2ncccc21 (stereo unspecified)
dose: 25.0 mg/kg/injection, schedule: Q01DX009 (ip), vehicle: suspension in saline
  T/C: 93 % of control
dose: 50.0 mg/kg/injection, schedule: Q01DX009 (ip), vehicle: suspension in saline
  T/C: 93 % of control
dose: 100.0 mg/kg/injection, schedule: Q01DX009 (ip), vehicle: suspension in saline
  T/C: 100 % of control
dose: 200.0 mg/kg/injection, schedule: Q01DX009 (ip), vehicle: suspension in saline
  T/C: 92 % of control

## CCCCCC(CSCC)C(=O)/C=C/c1ccc(Cl)c(Cl)c1 (stereo unspecified)
dose: 12.5 mg/kg/injection, schedule: Q01DX009 (ip), vehicle: distilled water + Tween-80
  T/C: 101 % of control
dose: 25.0 mg/kg/injection, schedule: Q01DX009 (ip), vehicle: distilled water + Tween-80
  T/C: 105 % of control
dose: 50.0 mg/kg/injection, schedule: Q01DX009 (ip), vehicle: distilled water + Tween-80
  T/C: 103 % of control and 104 % of control
dose: 100.0 mg/kg/injection, schedule: Q01DX009 (ip), vehicle: distilled water + Tween-80
  T/C: 105 % of control and 109 % of control
dose: 200.0 mg/kg/injection, schedule: Q01DX009 (ip), vehicle: distilled water + Tween-80
  T/C: 120 % of control and 124 % of control
dose: 400.0 mg/kg/injection, schedule: Q01DX009 (ip), vehicle: distilled water + Tween-80
  T/C: 119 % of control

## CCN(CC)c1nc(NNC(=S)NC)nc(N(CC)CC)n1
dose: 100.0 mg/kg/injection, schedule: Q04DX002 (ip), vehicle: saline with Tween-80
  T/C: 100 % of control
dose: 200.0 mg/kg/injection, schedule: Q04DX002 (ip), vehicle: saline with Tween-80
  T/C: 98 % of control
dose: 400.0 mg/kg/injection, schedule: Q04DX002 (ip), vehicle: saline with Tween-80
  T/C: 100 % of control

## CCN(CC)CCNC(=O)c1nn(C)c(=O)[nH]c1=O
[2]
  T/C: 108 % of control
[3]
  T/C: 119 % of control
[4]
  T/C: 99 % of control

## CSc1cccc(NC(=O)Oc2ccc(Br)cc2)c1
[5]
  T/C: 91 % of control
[6]
  T/C: 93 % of control
[7]
  T/C: 101 % of control

## BrCCc1cc(Br)c(CCBr)cc1Br
[2]
  T/C: 97 % of control
[3]
  T/C: 97 % of control
[4]
  T/C: 107 % of control

## CCC1(O)CC(OC2CC(N(C)C)C(OC3CC4OC5CC(=O)C(C)OC5OC4C(C)O3)C(C)O2)c2c(cc3c(c2O)C(=O)c2c(O)ccc(O)c2C3=O)C1C(=O)OC (stereo unspecified)
dose: 0.5 mg/kg/injection, schedule: Q04DX003 (ip), vehicle: other
  T/C: 123 % of control
dose: 0.5 mg/kg/injection, schedule: Q04DX003 (ip), vehicle: saline with Tween-80
  T/C: 112 % of control and 110 % of control and 118 % of control
dose: 0.5 mg/kg/injection, schedule: Q04DX003 (ip), vehicle: water
  T/C: 113 % of control
dose: 0.64 mg/kg/injection, schedule: Q04DX003 (ip), vehicle: water
  T/C: 109 % of control
dose: 1.0 mg/kg/injection, schedule: Q04DX003 (ip), vehicle: water
  T/C: 119 % of control
dose: 1.08 mg/kg/injection, schedule: Q04DX003 (ip), vehicle: water
  T/C: 115 % of control
dose: 1.8 mg/kg/injection, schedule: Q04DX003 (ip), vehicle: water
  T/C: 118 % of control
dose: 1.94 mg/kg/injection, schedule: Q04DX003 (ip), vehicle: water
  T/C: 118 % of control
dose: 2.0 mg/kg/injection, schedule: Q04DX003 (ip), vehicle: saline with Tween-80
  T/C: 170 % of control
dose: 3.24 mg/kg/injection, schedule: Q04DX003 (ip), vehicle: water
  T/C: 124 % of control
dose: 5.0 mg/kg/injection, schedule: Q04DX003 (ip), vehicle: water
  T/C: 114 % of control

## COc1cc2oc(=O)cc(C)c2cc1N=C=S
dose: 50.0 mg/kg/injection, schedule: Q04DX003 (ip), vehicle: suspension in saline
  T/C: 100 % of control
dose: 100.0 mg/kg/injection, schedule: Q04DX003 (ip), vehicle: suspension in saline
  T/C: 100 % of control
dose: 200.0 mg/kg/injection, schedule: Q04DX003 (ip), vehicle: suspension in saline
  T/C: 92 % of control

## CCCCCCC[CH2][Sn]([S][Sn]([CH2]CCCCCCC)([c]1ccccc1)[c]1ccccc1)([c]1ccccc1)[c]1ccccc1
dose: 6.25 mg/kg/injection, schedule: Q01DX009 (ip), vehicle: saline
  T/C: 101 % of control
dose: 12.5 mg/kg/injection, schedule: Q01DX009 (ip), vehicle: saline
  T/C: 98 % of control
dose: 25.0 mg/kg/injection, schedule: Q01DX009 (ip), vehicle: saline
  T/C: 101 % of control
[1]
  T/C: 86 % of control

## CC(Cc1ccc(O)cc1)NCC(O)c1ccc(O)c(O)c1 (stereo unspecified)
[5]
  T/C: 104 % of control
[6]
  T/C: 109 % of control

## Cc1cccc2c1CC(C(C)C)C2 (stereo unspecified)
dose: 25.0 mg/kg/injection, schedule: Q01DX009 (ip), vehicle: saline with Tween-80
  T/C: 111 % of control and 89 % of control
[5]
  T/C: 108 % of control and 96 % of control
[6]
  T/C: 104 % of control and 107 % of control
[7]
  T/C: 90 % of control

## CC1=C(C(N)=O)C(c2ccc(O)cc2)NC(=S)N1 (stereo unspecified)
dose: 60.0 mg/kg/injection, schedule: Q01DX005 (ip), vehicle: Klucel (hydroxypropylcellulose) (HPC)
  T/C: 101 % of control
dose: 120.0 mg/kg/injection, schedule: Q01DX005 (ip), vehicle: Klucel (hydroxypropylcellulose) (HPC)
  T/C: 101 % of control
dose: 240.0 mg/kg/injection, schedule: Q01DX005 (ip), vehicle: Klucel (hydroxypropylcellulose) (HPC)
  T/C: 101 % of control

## O=S(=O)(NCCSSCCNS(=O)(=O)c1ccc(F)cc1)c1ccc(F)cc1
[8]
  T/C: 95 % of control
[9]
  T/C: 90 % of control
[10]
  T/C: 89 % of control

## Nc1c(Cl)cc(Cl)c(-c2c(Cl)cc(Cl)c([N+](=O)[O-])c2Cl)c1Cl
[8]
  T/C: 103 % of control
[9]
  T/C: 93 % of control
[10]
  T/C: 100 % of control

## CCOc1c(N=Nc2ccc(Cl)cc2)c(-c2ccccc2)nn1C(=S)S
dose: 50.0 mg/kg/injection, schedule: Q01DX005 (ip), vehicle: saline with Tween-80
  T/C: 97 % of control
dose: 100.0 mg/kg/injection, schedule: Q01DX005 (ip), vehicle: saline with Tween-80
  T/C: 99 % of control
dose: 200.0 mg/kg/injection, schedule: Q01DX005 (ip), vehicle: saline with Tween-80
  T/C: 91 % of control

## CCOC(=O)c1cc(N(CCCl)CCCl)ccc1OC(=O)CC
dose: 50.0 mg/kg/injection, schedule: Q04DX003 (ip), vehicle: Klucel (hydroxypropylcellulose) (HPC)
  T/C: 100 % of control
dose: 100.0 mg/kg/injection, schedule: Q04DX003 (ip), vehicle: Klucel (hydroxypropylcellulose) (HPC)
  T/C: 100 % of control
dose: 200.0 mg/kg/injection, schedule: Q04DX003 (ip), vehicle: Klucel (hydroxypropylcellulose) (HPC)
  T/C: 97 % of control

## COC1CC23OC2(C1)C1C=CC3N(C(=O)OCC(Cl)(Cl)Cl)N1C(=O)OCC(Cl)(Cl)Cl (stereo unspecified)
[2]
  T/C: 102 % of control
[3]
  T/C: 105 % of control
[4]
  T/C: 102 % of control
